Experimental data as given in patent publication US12594249B2 (ThermoLife International, LLC, priority 2023, dated 2026).
Converted amounts (≈) assume the structure as drawn.

How the values were obtained:
[1] = system: exercise capacity and recovery; assay: case report: exercise performance and recovery of a subject who regularly trains (treadmill, arm curls test, soreness); format: in vivo, human; settings: for arm curls test: maximum number of bicep curl repetitions in 30 seconds: 40 lb dumbbell; for arm curls test: maximum number of bicep curl repetitions in 30 seconds / time to exhaustion on the treadmill: 1 gram doses the day/night before and 1 hour before training; for time to recovery (measured by muscle soreness and discomfort): after training; for time to exhaustion on the treadmill: Ifit treadmill, 0 elevation, 5 miles per hour
[2] = dissolution of 1 g powder in 100 ml water, visual, with and without stirring, centrifugation and filtration; settings: for appearance of filtrate / solid left on the filter paper: centrifuged at 1000 rpm for 10 seconds, filtered; for visible dissolution in water without stirring: not stirred, one minute (phenoxide), 10 minutes (curcumin); for solubility in water (visual): FIG. 6 (0.5 g in 50 ml), FIGS. 7 and 8 (1 g in 100 ml)
[3] = solubility of 2 g in 200 ml saturated citric acid solution (pH=3), filtration, visual; settings: for appearance of liquid that passed through the filter: 2 grams in 200 ml saturated citric acid solution
From the text: The resulting acidic solution was then passed out by a filter. […]

[4] = system: chronic knee and shoulder pain; assay: case report: oral ingestion by a person with chronic knee and shoulder pain; format: in vivo, human; settings: 1 gram twice per day
[5] = in vivo; cited from earlier work
[6] = standard conditions; cited from earlier work
[7] = Lu et al. 2020, cited from earlier work

solubility in water with stirring ([2]; 1 g in 100 ml water, stirring 1200 rpm)	Structure (SMILES)	arm curls test: maximum number of bicep curl repetitions in 30 seconds [1]	effect on exercise capacity and recovery (summary) ([1]; person)	time to recovery (measured by muscle soreness and discomfort) ([1]; person)	soreness the day after training ([1]; person, day after training)	time to exhaustion on the treadmill ([1]; person)	appearance of filtrate ([2]; 1 g in 100 ml water)	solid left on the filter paper ([2]; 1 g in 100 ml water)	visible dissolution in water without stirring ([2]; 1 g in 100 ml water)	time for all 1 gram to be dissolved in 100 ml of water ([2]; stirring at 1200 rpm with a magnetic stirrer)	solubility in water (visual) [2]	appearance of liquid that passed through the filter [3]	solubility at acidic pH (conclusion) ([3]; saturated citric acid solution)	onset of improvement in symptoms [4]	pain reduction during the next 30 days ([4]; 30 days)	half-life [5]	solubility in ethanol [6]	solubility in Phosphate buffer ([7]; Phosphate buffer)	solubility in water ([7]; water)
	COc1cc(/C=C/C(=O)/C=C(O)/C=C/c2ccc(O)c(OC)c2)ccc1O.N.N [ammonium phenoxide of curcumin]	14 repetitions	increased their exercise capacity and reduced the needed time for recovery	1 days	noticeably lower	15.5 min	the color of curcumin	no solid matter was left on the filter paper	visible at one minute	less than 10 seconds	a lot more water-soluble	characteristic orange color of curcumin	increased solubility	on the second day	continued showing improvement				
no solubility even with stirring	COc1cc(/C=C/C(=O)CC(=O)/C=C/c2ccc(O)c(OC)c2)ccc1O [curcumin]	11 repetitions	no effect	2 days		13 min	clear and lacked color	all of the curcumin powder was left on the filter paper	no visible sign of curcumin dissolving in water		low solubility	totally clear				~7 h	1000 µg/mL (≈ 2710 µM)	0.310 µg/mL (≈ 0.842 µM)	1.622 µg/mL (≈ 4.4 µM)
